Like-named read-outs stand apart in the source and are kept apart here.
Columns and labels:
[1] = system: phosphorylated cofilin and myosin light chain (MLC); assay: Western blotting of p-MLC/MLC and p-cofilin/cofilin in keloid fibroblasts; type: cell-based, human; details: keloid fibroblasts with or without stretch, Y-27632, FIG. 4C
Procedure: Scale bar=50 μm. The results were expressed as the mean with SD (n=5). The experiments were performed in triplicate. Student's t test was used for all analyses. * P<0.05. […] To obtain whole-cell extracts, cells were lysed with Pierce Cell Lysis Buffer (Thermo Fisher, MA, USA) containing phosphatase inhibitors and protease inhibitors. Protein extracts (30 μg) were analyzed by sodium dodecyl sulfate polyacrylamide gel electrophoresis (SDS-PAGE) and transferred to a polyvinylidene difluoride membrane. […] GAPDH was used as a loading control for Western blotting analysis.

[2] = system: YAP and MRTF; assay: Nuclear translocation of YAP and MRTF during stretching (subcellular fractionation, Western blotting); type: cell-based, human; details: stretched keloid fibroblasts, FIG. 6
Description: A is a Western blotting analysis of nuclear translocation of YAP and MRTF in the subcellular fraction of keloid fibroblasts subjected to or not subjected to mechanical stretching with or without Y-27632. B is a quantitative analysis of cytoplasmic and nuclear expression levels of MRTF and YAP. The results were expressed as the mean with SD (n=5). Student's t test was used for all analyses. *P<0.05. Nuclear/cytoplasmic extracts were separated separately using NE-Per Nuclear and Cytoplamic Extractons Reagents (#78833, Thermo Scientific, MA, USA) according to the manufacturer's instructions. Subcellular fractionation lysis was analyzed by Western blotting analysis for YAP (#5157, Cell Signaling, MA, USA), MRTF (sc-47724, Santa Cruz, CA, USA) including GADPH ([…], Santa Cruz, CA, USA) and Lamin B (#12586, Cell Signaling, MA, USA) as internal markers for cytoplasmic and nuclear fractions, respectively. The quantification was performed with Image J software.

[3] = system: keloid nodules formed by human keloid fibroblasts; assay: Patient-derived keloid xenograft SCID mouse model of nodule formation (nodule volume and weight); type: in vivo; details: SCID mice, Y-27632 20 mg/kg injected into nodule
Procedure: Approval for animal experiments was obtained from the Animal Experiment Performance Committee of Seoul National University Boramae Hospital (Approval No.: 2019-0031). Male NOD.CB17-Prkdc scid/J (SCID) mice (5 weeks old, weight: 22.58±0.91 g) were purchased from Charles River Japan (Yokohama, Japan). All animal experimental procedures were performed in accordance with the guidelines of the Animal Experiment Research Committee of Seoul Boramae Hospital. All experiments were performed under aseptic conditions. Under anesthesia using isoflurane, the dorsal furs of seven SCID mice were removed, the midline was marked, and then a 26-gauge needle was used in a 1-ml syringe (Becton, Dickinson and Company, Franklin Lakes, NJ, USA). These cells were obtained from seven patients who underwent keloid resection at Seoul National University Boramae Hospital. The cells were injected approximately 1 cm apart from the left and right sides of the most prominent area of the mouse's back. […] The nodules were measured every 2 to 3 days with calipers, and nodule volume was calculated using the following equation: Nodule volume=½×A×B2, where A=length in millimeters, B=width in millimeters. To collect the nodules 14 days after keloid fibroblast injection, the surrounding skin was carefully separated using forceps and a blade, and only the nodules were collected and weighed.

[4] = system: keloid fibroblasts; assay: Transwell migration analysis of keloid fibroblasts; type: cell-based, human; details: under mechanical force (stretch 24 hours), 10 μM Y-27632, transwell 24 hours, FIG. 5B
Procedure: Scale bar=200 μm. The results were expressed as the mean with SD (n=5). Student's t test was used for all analyses. * P<0.05.
For migration analysis using Transwell […] pore-size polycarbonate membrane (#3422, Corning Inc., ME, USA). […] As a control, static cells were cultured in a strex stretch chamber under the same conditions without stretch stimulation. Keloid cells were then harvested and counted, and 2×10^4 cells were resuspended in 150 μL of medium containing 1% FBS and reintroduced into the upper compartment of the insert. The lower compartment was filled with 500 μL of medium containing 2% FBS as a chemoattractant. The cells were allowed to migrate for 24 hours at 37° C. The cells were fixed in 4% PFA, permeabilized with 0.1% Triton X-100 in PBS for 10 min, and stained with hematoxylin for 10 min at room temperature. After washing with PBS, non-migrated cells were removed from the upper insert by a cotton swab. The polycarbonate membrane was removed from the insert and mounted on a slide. Fields of migrated cells were captured with an inverted microscope (Leica Microsystems GmbH, Wetzlar, Germany). The migration area was evaluated as a purple area extracted from each image, and analyzed with Image J software as a percentage of the migrated area.

[5] = system: ROCK1; details: FIG. 4A
Procedure: Mechanical stretching was applied to keloid fibroblasts using a mechanical stretching device (STB-1400; Strex Inc., Osaka, Japan). Briefly, the keloid fibroblasts were seeded at a density of 1.2×10^5 cells in a strex stretch chamber (STB-CH-10 Strex Inc., Osaka, Japan) pre-coated with 20 μg/ml rat tail type I collagen (C7661, Sigma Aldrich). After allowing attachment for overnight incubation, the strex stretch chamber was moved to the stretching device and mounted on a hook. The flexible silicone chamber was exposed to stretching with a length of 0-20% tension at a frequency of 10 cycles/min (0.166 Hz) for 24 hours. […] Cells of the control group were cultured in the same type of chamber in an incubator.
ROCK1 kinase activity was analyzed with a ROCK activity assay kit (Cell Biolabs, CA, USA) according to the manufacturer's instructions. The ROCK activity assay kit is an enzyme immunoassay designed to detect the phosphorylation level of myosin phosphatase target subunit 1 at Thr696 by ROCK. […] The cells were harvested, trypsinized, and washed twice with PBS. […] Protein concentrations were determined using the Pierce BCA Quantification Protein Kit (Thermo Fisher Scientific, MA, USA). […] The absorbance was read at 450 nm with a SpectraMax Plus 384 microplate reader (Molecular Devices, San Jose, CA, USA).

[6] = system: keloid fibroblasts; assay: Cell viability / proliferation of keloid fibroblasts (CCK-8); type: cell-based, human; details: increasing dose of Y-27632, 24 hours, FIG. 3A
Procedure: Immunofluorescence confocal microscopy experiments were performed with antibodies to F-actin (green) and vinculin (orange). Scale bar=50 μm. Quantification of fluorescence intensity was shown. The experiments were performed in triplicate. Student's t test was used for all analyses. * P<0.05. […] Briefly, human skin and keloid tissues were collected from five patients who underwent surgical resection at Seoul National University Boramae Hospital. The samples were rinsed three times with Dulbecco's phosphate-buffered saline containing 1% antibiotic-antifungal solution (A/A; Welgene, Gyeongsangbuk-do, Korea) and cut into 3 mm thick pieces. The tissues were then placed in 5 mg/ml dispase solution (Roche, Basel, Switzerland) for 4 hours at 37° C. The dermis and epidermis were separated, chopped into 1-mm thick pieces, and digested in 3 mg/ml collagenase type I (Thermo Fisher, MA, USA) to obtain a single cell suspension. The cells were cultured in Dulbecco's modified Eagle's medium (DMEM; Biowest, Nuaillé, France) containing 10% fetal bovine serum (FBS; Biowest, France) and 1% Antibiotic/Antimycotic Solution (Welgene Inc., Korea) in a humidified incubator at 37° C. and 5% CO2. […] The effect of stretch stimulation on the proliferation of normal and keloid fibroblasts was evaluated by the CCK-8 assay. […] The experiments were performed in triplicate and the data are expressed as the mean±SD.

[7] = system: COL1A1, COL3A1, Fibronectin, α-SMA, CTGF, PCNA mRNA; assay: qRT-PCR of pro-fibrotic genes in keloid fibroblasts; type: cell-based, human; details: mechanically stimulated keloid fibroblasts, FIG. 5A
Procedure: Scale bar=200 μm. The results were expressed as the mean with SD (n=5). Student's t test was used for all analyses. * P<0.05. […] Total RNA was extracted using TRIzol reagent (Thermo Fisher Scientific, MA, USA). RNA (1000 ng) was subjected to cDNA synthesis using oligo (dT) random primers (Integrated DNA Technologies, IA, US) and AccuPower RT PreMix (Bioneer, South Korea) according to the following procedure: qRT-PCR was performed with PowerUp SYBR green master mix on a StepOnePlus real-time PCR System (Applied Biosystems, CA, USA) at 42° C. for 60 min and 95° C. for 5 min. The mRNA levels of each gene were normalized to the mRNA levels of GAPDH. The PCR steps are composed of an initial denaturation step at 94° C. for 5 min; at 94° C. for 1 min (denaturation), 55° C. for 1 min (annealing), and 72° C. for 2 min (extension); and a final extension step at 72° C. for 7 min. […] Relative expression was calculated using the 2-ΔΔCt method.

[8] = system: F-actin; assay: F-actin immunofluorescence in keloid fibroblasts; type: cell-based, human
Procedure: Immunofluorescence confocal microscopy experiments were performed with antibodies to F-actin (green) and vinculin (orange). Scale bar=50 μm. Quantification of fluorescence intensity was shown. The experiments were performed in triplicate. Student's t test was used for all analyses. * P<0.05. […] Scale bar=50 μm. The results were expressed as the mean with SD (n=5). The experiments were performed in triplicate. Student's t test was used for all analyses. * P<0.05. […] Cells were washed twice with cold PBS and fixed overnight at 4° C. with 4% (w/v) paraformaldehyde. […] The cells were exposed to blocking buffer (1% BSA/PBS) for 30 min at room temperature and then exposed to Alexa Fluor 488-conjugated phalloidin (#A12379, Invitrogen, USA) in 1% BSA/0.1% Triton X-100/PBS for 1 hour at room temperature. After three washing steps, the cells were mounted with DAPI mounting medium, sealed with coverslip, and examined using a confocal laser scanning microscope (LSM 900; Carl Zeiss, NY, USA).

[9] = system: keloid nodules formed by human keloid fibroblasts; assay: In vivo histological and immunohistochemical analysis of keloid nodules; set-up: species or system SCID mice
Procedure: A isolates nodules from mice treated with DMSO or Y-27632. […] Original magnification: ×200, scale bar=100 μm.
Nodules were harvested 14 days after initial cell injection, fixed in 4% paraformaldehyde at 4° C. for 24 hours, washed with water for at least 4 hours, and finally embedded in paraffin. Paraffin sections (4 μm thick) were stained with hematoxylin and eosin (H&E, ab245880, Abcam, Cambridge, UK) and MT (TRM-2, ScyTek, Logan, Utah, USA) according to the manufacturer's instructions. The cytoplasm (400× magnification) of H&E-stained sections and the collagen density (400× magnification) of MT-stained sections were checked for each section using an Olympus BX53 microscope (Olympus Corporation, Shinjuku, Japan). Screenshots of three fine fields (right, center, and left) were acquired. The number of inflammatory cells per unit area (0.1 mm^2) was calculated using Olympus cellSens standard imaging software. The optical density of collagen was measured using ImageJ Immunohistochemical staining by avidin-biotin complex method. Briefly, paraformaldehyde (4%) fixed specimens were embedded in paraffin and cut into 4 μm thickness. The sections were dried at 56° C. for 1 hour, and then subjected to deparaffinization and rehydration steps with xylene. The sections were then cultured with trypsin enzyme antigen retrieval solution (ab970, Abcam, Cambridge, UK) at 37° C. for 30 min. Overnight culture was performed with primary antibodies at 4° C. After three washes with Tris-buffered saline containing 0.025% Triton-100, the second antibody was applied to each section at room temperature for 30 min. Images were taken in three fields (right, center, and left) with an Olympus BX53 microscope and analyzed with Image J software.

## C[C@@H](N)[C@H]1CC[C@H](C(=O)Nc2ccncc2)CC1 [Y-27632]
[1]
  expression of phosphorylated proteins (p-cofilin, p-MLC): greatest decrease
[2]
  nuclear import of YAP and MRTF: inhibiting nuclear import
[3]
  weight of keloid nodules compared to the control group: significantly reduced
[3]; DMSO control 21.27±13.98
  mean volume of keloid nodules at the time of keloid nodule excision: 17.21±13.49 MM^3
[3]; control 7.61±3.16, FIG. 7A
  average weight of keloid nodules: 4.56±3.50 Mg
[4]
  migration of keloid fibroblasts: partially inhibited
[5]; keloid fibroblasts treated with Y-27632 (10 μM, 24 hours) and stretch-stimulated
  decrease in the activity of ROCK1: 26%
[5]; keloid fibroblasts treated with Y-27632 alone (10 μM, 24 hours, static)
  decrease in the activity of ROCK1: 10.8%
[6]
  inhibitory effect on keloid fibroblast proliferation: No inhibitory effect
[7]
  mRNA levels of fibrotic genes (COL1A1, COL3A1, Fibronectin, α-SMA, CTGF, PCNA): decrease
[8]; at 25 and 50 μM, 24 h, keloid fibroblasts
  disruption of F-actin cytoskeletal structure: dramatic disruption
[8]; fibroblasts with or without mechanical stretching exposed to Y-27632, FIG. 4B
  cellular F-actin network: significantly disrupted
[8]; increasing doses, 24 h, FIG. 3B
  F-actin fiber formation in keloid fibroblasts: tightly regulated by Y-27632 treatment in a dose-dependent manner
[9]; H&E staining, compared to the control group
  inflammatory cells in the keloid region: reduced inflammatory cells
[9]; control group compared to the Y-27632-treated group
  deposition of collagen bundles (MT staining): higher deposition of collagen bundles in the control group
[9]; immunohistochemistry of nodule tissue, compared to the DMSO-treated group, FIG. 7B
  protein expression of VEGF, SMA, vimentin, collagen type I, and collagen type III: significantly reduced
